Experimental data from patent publication US5773573A, “HIV peptides” (priority 1994, dated 1998).
Residues, ends and D or L forms follow the SMILES beside them.

Assay: White cell and T cell subset counts (CD4, CD8, NK) in HIV infected patient given HEP1
Format: in vivo, human
Conditions: patient three, oral HEP1 10 mg daily day 2-22
Method: The objective of this study was to determine in an HIV infected patient if the induction of immunological tolerance to HEP1 could reduce immune activation and HIV infection. The design of the first clinical experiment was to orally administer HEP1 to the patient in daily 10 mg doses (the lower end of the preferred dose range). This was then followed approximately three months later with a subcutaneous administration of HEP1 at a higher dose of 140 mg. To assess the therapeutic benefit of HEP1, the following disease progression markers were measured by taking blood samples before, during and after each trial and determining: HIV levels by a p24 antigen assay, HIV infectivity by a cellular TCID assay and immune activation by quantitating levels of various lymphocytes.
T cell subsets were measured by adding a whole blood sample to a 4.5 ml tube containing EDTA and staining with monoclonal antibodies to CD3, CD4 and CD8. The percentage of T cells in Peripheral Blood Lymphocytes were determined by flow-cytometric procedures. The numbers of CD4 and CD8 T cells were determined by obtaining total and differential white-cell counts and multiplying by the appropriate factor obtained on flow cytometry.
The following markers of HIV disease progression were assayed: p24Ag (the concentration of HIV p24 protein in picogram/ml in the blood), TCID (the infectivity of the HIV in the cells of blood sample measured by an in vitro cell culture assay in which a serial dilution of the sample was mixed with activated uninfected PBMC and the level of HIV infection determined by p24Ag assay), total white count (immune activation measured by the number of white cells per mm^3), CD4 (the number of CD4 positive cells per mm^3), CD8 (the number of CD8 positive cells per mm^3), NK (the number of Natural Killer cells per mm^3), Lymphocytes (the number of cells per mm^3), Monocytes (the number of cells per mm^3), and Granulocytes (the number of cells per mm^3). Normalised data was calculated by dividing each data point by the value of its data series on day 1 of the trail and multiplying by 100.

## CC(C)[C@H](NC(=O)[C@@H](NC(=O)[C@H](CCC(=O)O)NC(=O)[C@H](CCCNC(=N)N)NC(=O)[C@H](CCCNC(=N)N)NC(=O)[C@H](CCCCN)NC(=O)[C@H](CCCCN)NC(=O)[C@H](CCC(=O)O)NC(=O)[C@@H](N)[C@@H](C)O)[C@@H](C)O)C(=O)N[C@@H](CCC(=O)O)C(=O)N[C@@H](CCCNC(=N)N)C(=O)N[C@@H](CCC(=O)O)C(=O)N[C@@H](CCCCN)C(=O)N[C@@H](CCC(=O)O)C(=O)O [HEP1, NH2 ThrGluLysLysArgArgGluThrValGluArgGluLysGluCOOH] (H-TEKKRRETVEREKE-OH)
Day 1, before first dose
  % Granulocytes: 76.1%
  % Granulocytes, normalised data (day 1 = 100): 100
  % Lymphocytes: 17.8%
  % Lymphocytes, normalised data (day 1 = 100): 100
  % Monocytes: 6.1%
  % Monocytes, normalised data (day 1 = 100): 100
  CD4: 80 cells per mm^3
  CD4, normalised data (day 1 = 100): 100
  CD8: 900 cells per mm^3
  CD8, normalised data (day 1 = 100): 100
  Granulocytes: 6230 cells per mm^3
  Lymphocytes: 1480 cells per mm^3
  Lymphocytes, normalised data (day 1 = 100): 100
  Monocytes: 570 cells per mm^3
  Monocytes, normalised data (day 1 = 100): 100
  NK: 30 cells per mm^3
  NK, normalised data (day 1 = 100): 100
  White count: 8200 cells per mm^3
  White count, normalised data (day 1 = 100): 100
Day 7, during treatment
  % Granulocytes: 81.4%
  % Granulocytes, normalised data (day 1 = 100): 107
  % Lymphocytes: 15.5%
  % Lymphocytes, normalised data (day 1 = 100): 87
  % Monocytes: 3.1%
  % Monocytes, normalised data (day 1 = 100): 51
  CD4: 80 cells per mm^3
  CD4, normalised data (day 1 = 100): 100
  CD8: 850 cells per mm^3
  CD8, normalised data (day 1 = 100): 94
  Granulocytes: 6560 cells per mm^3
  Granulocytes, normalised data (day 1 = 100): 105
  Lymphocytes: 1150 cells per mm^3
  Lymphocytes, normalised data (day 1 = 100): 78
  Monocytes: 490 cells per mm^3
  Monocytes, normalised data (day 1 = 100): 86
  NK: 30 cells per mm^3
  NK, normalised data (day 1 = 100): 100
  White count: 8200 cells per mm^3
  White count, normalised data (day 1 = 100): 100
Day 14, during treatment
  % Granulocytes: 76.8%
  % Granulocytes, normalised data (day 1 = 100): 101
  % Lymphocytes: 16.8%
  % Lymphocytes, normalised data (day 1 = 100): 94
  % Monocytes: 6.4%
  % Monocytes, normalised data (day 1 = 100): 105
  CD4: 90 cells per mm^3
  CD4, normalised data (day 1 = 100): 113
  CD8: 900 cells per mm^3
  CD8, normalised data (day 1 = 100): 100
  Granulocytes: 5620 cells per mm^3
  Granulocytes, normalised data (day 1 = 100): 90
  Lymphocytes: 1460 cells per mm^3
  Lymphocytes, normalised data (day 1 = 100): 99
  Monocytes: 620 cells per mm^3
  Monocytes, normalised data (day 1 = 100): 109
  NK: 40 cells per mm^3
  NK, normalised data (day 1 = 100): 133
  White count: 7700 cells per mm^3
  White count, normalised data (day 1 = 100): 94
Day 21, during treatment
  % Granulocytes: 76.2%
  % Granulocytes, normalised data (day 1 = 100): 100
  % Lymphocytes: 18.6%
  % Lymphocytes, normalised data (day 1 = 100): 104
  % Monocytes: 5.2%
  % Monocytes, normalised data (day 1 = 100): 85
  CD4: 80 cells per mm^3
  CD4, normalised data (day 1 = 100): 100
  CD8: 910 cells per mm^3
  CD8, normalised data (day 1 = 100): 101
  Granulocytes: 5100 cells per mm^3
  Granulocytes, normalised data (day 1 = 100): 82
  Lymphocytes: 1160 cells per mm^3
  Lymphocytes, normalised data (day 1 = 100): 78
  Monocytes: 540 cells per mm^3
  Monocytes, normalised data (day 1 = 100): 95
  NK: 40 cells per mm^3
  NK, normalised data (day 1 = 100): 133
  White count: 6800 cells per mm^3
  White count, normalised data (day 1 = 100): 83
Day 28, after treatment
  % Granulocytes: 74.5%
  % Granulocytes, normalised data (day 1 = 100): 98
  % Lymphocytes: 20%
  % Lymphocytes, normalised data (day 1 = 100): 112
  % Monocytes: 5.5%
  % Monocytes, normalised data (day 1 = 100): 90
  CD4: 80 cells per mm^3
  CD4, normalised data (day 1 = 100): 100
  CD8: 730 cells per mm^3
  CD8, normalised data (day 1 = 100): 81
  Granulocytes: 4020 cells per mm^3
  Granulocytes, normalised data (day 1 = 100): 65
  Lymphocytes: 1050 cells per mm^3
  Lymphocytes, normalised data (day 1 = 100): 71
  Monocytes: 440 cells per mm^3
  Monocytes, normalised data (day 1 = 100): 77
  NK: 20 cells per mm^3
  NK, normalised data (day 1 = 100): 67
  White count: 5500 cells per mm^3
  White count, normalised data (day 1 = 100): 67
day-69, before treatment
  % Granulocytes: 80.4%
  % Granulocytes, normalised data (day 1 = 100): 106
  % Lymphocytes: 15.4%
  % Lymphocytes, normalised data (day 1 = 100): 87
  % Monocytes: 4.2%
  % Monocytes, normalised data (day 1 = 100): 96
  CD4: 90 cells per mm^3
  CD4, normalised data (day 1 = 100): 113
  CD8: 850 cells per mm^3
  CD8, normalised data (day 1 = 100): 94
  Granulocytes: 6000 cells per mm^3
  Granulocytes, normalised data (day 1 = 100): 96
  Lymphocytes: 1260 cells per mm^3
  Lymphocytes, normalised data (day 1 = 100): 85
  Monocytes: 630 cells per mm^3
  Monocytes, normalised data (day 1 = 100): 111
  NK: 20 cells per mm^3
